“Also recorded” adds a separate entry of the source. Like-named read-outs stand apart in the source and are kept apart here.

The target of data set [1] is T1, Kv1.5 (Homo sapiens, UniProt P22460). The settings on record: Table 1, cited from earlier work; for IC50: read-out: IC50 value Kv1.5.
Data set [2] deals with T2, Kv1.3 (Mus musculus, UniProt P16390). The class given is cell-based. The settings on record: for IC50: IC50 Kv1.3, text; for Effect on Kv1.3: concentration of 10 µM where stated.
T2 sequence (P16390 whole entry): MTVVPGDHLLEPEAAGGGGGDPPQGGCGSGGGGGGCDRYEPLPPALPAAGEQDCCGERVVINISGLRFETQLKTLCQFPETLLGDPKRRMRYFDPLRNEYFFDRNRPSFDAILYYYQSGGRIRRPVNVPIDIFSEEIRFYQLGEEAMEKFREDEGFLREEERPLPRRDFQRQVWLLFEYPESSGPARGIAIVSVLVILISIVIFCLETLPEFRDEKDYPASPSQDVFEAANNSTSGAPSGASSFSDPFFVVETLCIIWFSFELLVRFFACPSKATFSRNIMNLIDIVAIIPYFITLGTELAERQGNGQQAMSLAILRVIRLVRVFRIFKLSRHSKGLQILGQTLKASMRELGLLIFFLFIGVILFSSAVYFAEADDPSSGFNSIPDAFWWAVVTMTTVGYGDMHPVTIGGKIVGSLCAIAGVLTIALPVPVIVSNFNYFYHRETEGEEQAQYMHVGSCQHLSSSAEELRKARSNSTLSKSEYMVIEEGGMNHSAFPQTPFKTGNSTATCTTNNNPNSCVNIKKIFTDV
The target in data set [3] is T1, Kv1.5. Kind of data set: Kv1.5 inhibition, whole-cell patch-clamp, currents recorded from MEL-C88 cells. The format is cell-based. The settings on record: for Selectivity IC50 (Kv1.5)/IC50 (Kv1.3): Table 1.
The nature of data set [4]: HPLC studies on stability in DMSO stock and Ringer solution. The settings on record: data not shown. The class given is physicochemical.
The conditions of data set [5]: cited from earlier work.
For data set [6] the following is noted: cited from earlier work. The source holds these as a separate data set.
A further data set concerns type-1 diabetes. The settings on record: rat models; cited from earlier work.
Data set [7] relates to oxazolone-induced allergic contact dermatitis. The settings on record: rat models; cited from earlier work.
For data set [8] the following is noted: administration for 28 days or 6 months, rats or rhesus macaques; cited from earlier work.
Data set [9] addresses T2, Kv1.3. The settings on record: read-out: IC50 Kv1.3; cited from earlier work.

T1 sequence (P22460 whole entry): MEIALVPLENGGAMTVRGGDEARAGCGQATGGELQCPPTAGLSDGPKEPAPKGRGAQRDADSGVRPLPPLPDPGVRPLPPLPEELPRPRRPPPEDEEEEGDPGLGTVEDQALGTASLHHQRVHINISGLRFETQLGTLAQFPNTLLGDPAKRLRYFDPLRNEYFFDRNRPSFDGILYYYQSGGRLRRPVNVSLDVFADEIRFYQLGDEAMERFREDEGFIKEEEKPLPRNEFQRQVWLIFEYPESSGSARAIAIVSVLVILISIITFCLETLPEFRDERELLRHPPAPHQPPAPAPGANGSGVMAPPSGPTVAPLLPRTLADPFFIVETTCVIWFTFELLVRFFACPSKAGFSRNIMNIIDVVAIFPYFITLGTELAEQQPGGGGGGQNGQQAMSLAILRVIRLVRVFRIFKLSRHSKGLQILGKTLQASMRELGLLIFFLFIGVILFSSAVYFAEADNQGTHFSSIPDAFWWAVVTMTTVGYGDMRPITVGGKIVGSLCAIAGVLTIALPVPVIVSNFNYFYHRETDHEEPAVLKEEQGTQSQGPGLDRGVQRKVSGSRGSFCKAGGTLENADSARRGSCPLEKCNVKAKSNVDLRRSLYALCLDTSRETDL

Regarding `COc1c2ccoc2cc2oc(=O)ccc12` [Compound 5-MOP, 5-methoxypsoralen], on Kv1.5 [1], the “Selectivity IC50 (Kv1.5)/IC50 (Kv1.3)” value is given as 1.75 and the IC50 (as a rule, the concentration needed to halve the response being measured) is 177000 nM.
The compound `c1ccc(OCCCCOc2ccccc2)cc1` [Compound 15, 1,1'[1,4-Butanediyl(oxy)]bis-benzene] displayed an IC50 on Kv1.3 [2] greater than 10000 nM.
Still for that read-out and setting: the same measure for `c1ccc(OCCCCOc2cccc3ccccc23)cc1` [Compound 16, 1-(4-Phenoxybutoxy)naphthalene]: greater than 10000 nM.
Consider `c1ccc(OCCCCOc2ccnc3ccccc23)cc1` [Compound 17, 4-(4-Phenoxybutoxy)quinoline], for which, at Kv1.5 [3], the IC50 is 3500 nM, the “Selectivity (IC50 for Kv1.5 divided by the IC50 for Kv1.3)” value worked out at 0.34 fold, the “Times more potent on Kv1.5 than on Kv1.3” value is reported as “roughly 3 times” and the “Selectivity IC50 (Kv1.5)/IC50 (Kv1.3)” value is recorded as less than 0.35. The “Effect on Kv1.3” value at Kv1.3 [2] is given as “ineffective”.
Compound `c1ccc(OCCCCOc2ncnc3ccccc23)cc1` [Compound 19, 4-(4-Phenoxybutoxy)quinazoline] had an IC50 on Kv1.5 [3] of roughly 25000 nM. For the same compound, the “Effect on Kv1.3” value at Kv1.3 [2] is “ineffective”.
Turning to `O=c1cc(OCCCCOc2ccccc2)c2ccccc2o1` [Compound 21, 4-(4-Phenoxybutoxy)-2H-[1]benzopyran-2-one], on Kv1.5 [3], the IC50 came to 1500 nM and the “Selectivity IC50 (Kv1.5)/IC50 (Kv1.3)” value was 1.69.
The like results for `COc1c2occc2c(OC)c2c(OCCCCOc3ccccc3)cc(=O)oc12` [Compound 23, 5,8-Dimethoxy-4-(4-phenoxybutoxy)psoralen] were, in that order, 850 nM and 1.89.
In the case of `O=C1c2ccccc2C(=O)c2c(OCCCCOc3ccccc3)cccc21` [Compound 25, 1-(4-Phenoxybutoxy)anthraquinone], on Kv1.5 [3], the IC50 is 10000 nM and the “Selectivity IC50 (Kv1.5)/IC50 (Kv1.3)” value is 1.43.
As for `c1ccc(OCCCCOc2cc3ccccc3c3ccccc23)cc1` [Compound 26, 9-(4-Phenoxybutoxy)phenanthrene], at Kv1.3 [2], the IC50 is greater than 10000 nM.
For the compound `COc1cccc2c(=O)c3ccccc3n(CCCCOc3ccccc3)c12` [Compound 28, 9,10-Dihydro-4-methoxy-N-(4-phenoxybutyl)acridin-9-one], on Kv1.5 [3], the IC50 was 450 nM and the “Selectivity IC50 (Kv1.5)/IC50 (Kv1.3)” value was found to be 2.73.
As for `COc1cc2nc3occc3c(OCCCCOc3ccccc3)c2cc1OC` [Compound 34, 6,7-Dimethoxy-4-(4-phenoxybutoxy)furo[2,3-b]quinoline], on Kv1.5 [3], half-maximal inhibition (IC50) was put at 480 nM and the “Selectivity IC50 (Kv1.5)/IC50 (Kv1.3)” value is on record as 3.2. Further, on Kv1.3 [2], the “Kinetics of block (mode of Kv1.3 block)” value was “block the C-type inactivated state; also recorded: use-dependence”.
As for `COc1ccc2c(OCCCCOc3ccccc3)c3ccoc3nc2c1OC` [Compound 35, 7,8-Dimethoxy-4-(4-phenoxybutoxy)furo[2,3-b]quinoline], the “Kinetics of block (mode of Kv1.3 block)” value on Kv1.3 [2] is recorded as “block the C-type inactivated state; also recorded: use-dependence”.
On to `Cc1cc(=O)c2c(OCCCCOc3ccccc3)c3ccoc3cc2o1` [Compound 36, 7-Methyl-4-(4-phenoxybutoxy)-5H-furo[3,2-g][1]benzopyran-5-one], for which, on Kv1.5 [3], the IC50 came out at 310 nM and the “Selectivity IC50 (Kv1.5)/IC50 (Kv1.3)” value was determined as 1.33. For the same compound, on Kv1.3 [2], the “Kinetics of block (mode of Kv1.3 block)” value was “block the C-type inactivated state; also recorded: use-dependence”.
Regarding `COc1c2occc2c(OCCCCOc2ccccc2)c2c(=O)cc(C)oc12` [Compound 37, 9-Methoxy-7-methyl-4-(4-phenoxybutoxy)-5H-furo[3,2-g][1]benzopyran-5-one], on Kv1.5 [3], the concentration for half-maximal inhibition (IC50) is 2500 nM and the “Selectivity IC50 (Kv1.5)/IC50 (Kv1.3)” value is 1.67.
The corresponding values for `O=c1ccc2c(OCCCCOc3ccccc3)cccc2o1` [Compound 42, 5-(4-Phenoxybutoxy)-2H-[1]benzopyran-2-one] are 520 nM and 3.47.
As to `Cc1cc(=O)c2c(OCCCCOc3ccccc3)c3c(cc2o1)OCO3` [Compound 56, 2-Methyl-6,7-methylendioxy-5-(4-phenoxybutoxy)-4H-[1]benzopyran-4-one], the “Times more potent on Kv1.5 than on Kv1.3” value at Kv1.5 [3] is “roughly 3 times”.
For `COc1c2ccoc2c(OCCCCOc2ccccc2)c2oc(=O)cc(C)c12` [Compound 63, 5-Methoxy-4-methyl-8-(4-phenoxybutoxy)psoralen], on Kv1.5 [3], the midpoint of inhibition, the IC50, lay at 280 nM; the “Times more potent on Kv1.5 than on Kv1.3” value was “roughly 3 times”; the “Selectivity IC50 (Kv1.5)/IC50 (Kv1.3)” value is on record as 0.88. In addition, the “Kinetics of block (mode of Kv1.3 block)” value at Kv1.3 [2] is reported as “open-channel blockers”.
Take `S=c1ccc2c(OCCCCOc3ccccc3)c3ccoc3cc2o1` [Compound 73, 4-(4-Phenoxybutoxy)-7H-furo[3,2-g]chromene-7-thione]: on Kv1.5 [3], the IC50 came to 380 nM, the “Times more potent on Kv1.5 than on Kv1.3” value is 22 times and the “Selectivity IC50 (Kv1.5)/IC50 (Kv1.3)” value is recorded as 22. For the same compound, in data set [4] (DMSO stock solutions), the “Stability in DMSO stock solutions (HPLC)” value is recorded as “more than 12 months”. In data set [4] (Ringer solution), the “Stability in Ringer solution (HPLC)” value is listed as “at least 24 hours”. For the same compound, the “Kinetics of block (mode of Kv1.3 block)” value at Kv1.3 [2] is reported as “block the C-type inactivated state; also recorded: use-dependence”.
With `O=c1ccc2c(OCCCCOc3ccccc3)c3ccoc3cc2o1` [PAP-1, 5-(4-phenoxybutoxy)psoralen], the phototoxicity result in data set [5] is listed as “not phototoxic”. The “in vitro or in vivo toxicity” value in data set [6] is listed as “does not display any in vitro or in vivo toxicity”. For the same compound, in the data set on type-1 diabetes, the “Effect on onset and incidence of type-1 diabetes” value is “significantly delays the onset and reduces the incidence of type-1 diabetes”. Besides, in data set [7], the “Effect on oxazolone-induced allergic contact dermatitis” value is “effectively suppresses oxazolone-induced allergic contact dermatitis”. Also, in data set [8], the “Changes in liver enzymes or liver pathology” value was “does not lead to any changes in liver enzymes or liver pathology”. Moreover, on Kv1.3 [2], the “Potency on Kv1.3 in comparison to 5-MOP” value was “more than 1000 fold”. For the same compound, the IC50 on Kv1.5 [1] was 45 nM.
Take `COc1cc2nc3occc3c(OC)c2cc1OC` [kokusagenine, 4,6,7-trimethoxyfuro[2,3-b]quinoline]: the IC50 at Kv1.3 [9] was 10000 nM.

These data come from paper PMC2662044 (European journal of medicinal chemistry, 2008).
